The source of these data is US20110104301A1, “METHODS OF REDUCING PAIN AND INFLAMMATION” (Georgetown University, A Congressionally Chartered …, priority 2008, published 2011).

Entries after “also recorded” stand apart in the source; their conditions may differ.

Test [1] deals with T1, TRPV1 (Mus musculus, UniProt Q704Y3).
T1 construct: endogenous in cells; host or cells: primary nodose ganglion neurons of adult C57Bl6/J mice
The test can be described thus: Patch-clamp of capsaicin-sensitive sensory neurons (nodose ganglia). Format: cell-based. As to the method: (§1) HEK cell and sensory neuron electrophysiology. HEK 293F cells (Invitrogen) were cultured in DMEM supplemented with 1% non-essential amino acids and 10% fetal calf serum. Cell cultures were maintained at 37° C. with 5% CO2. Cells were transfected with rat TRPV 1 (gift of David Julius), and GFP cDNA using Lipofectamine™ Transfection Reagent (Invitrogen) and used 24-48 h after transfection. Nodose ganglia were obtained from adult mice (C57B16/J and TRPV1-null), cut, digested with collagenase, and cultured in Neurobasal +2% B-27 medium (Invitrogen), 0.1% L-glutamine and 1% penicillin/streptomycin on poly-D lysine-coated glass coverslips at 37° C. in 5% CO2. Neurons were used within 24-36 hr of culture. Whole-cell and single-channel patch clamp recordings were performed using an EPC8 amplifier (HEKA). The current signal was low-pass filtered at 1-3 kHz and sampled at 4 kHz. Currents were further filtered for display purposes. For whole-cell and excised patch recordings the bath solution contained (in mM): 140 NaCl, 4 KCl, 1 MgCl2, 1 EGTA, 10 HEPES, 10 glucose pH 7.3 (290 mOsm). The pipette solution contained (in mM): 140 CsC1, 10 NaCl, 10 HEPES, 5 EGTA, 2 Mg ATP and 0.03 GTP, pH 7.3. The peak amplitudes measured either during the prepulse or the tail current (within 1 ms) were plotted as a function of the test potential and normalized to the maximal current obtained from the following Boltzmann function: […]

Test [2] concerns AITC-sensitive DRG neurons. The test can be described thus: Voltage- and current-clamp of DRG sensory neurons. Format: cell-based, mouse. Particulars: camphor 0.5 mM, propofol 100 μM. As to the method: (§2) Electrophysiology. HEK 293F cells were transfected with rat TRPV1, TRPA1, and TRPM8 (gift of David Julius, University of California, San Francisco). Dorsal root ganglia were cultured from adult mice (C57B16/J wild type and TRPV1-null, and mixed B6/129 background TRPA1-null) in Neurobasal +2% B-27 medium (Invitrogen), 0.1% L-glutamine and 1% penicillin/streptomycin. Whole-cell and single-channel patch-clamp recordings were performed by using an EPC8 amplifier (HEKA Electronics). For whole-cell and excised patch recordings the bath solution contained 140 mMNaCl, 4 mMKCl, 1 mMMgCl2, 1.2 mMCaCl2, 10 mMHepes, 10 mM glucose, pH 7.3. For cell-attached experiments, NaCl was replaced with KCl in the bath solution. The pipette solution contained 140 mM NaCl or KCl, 10 mM Hepes, 5 mM EGTA, pH 7.3. For neuronal recording NaCl was replaced with K-gluconate (plus 1 mMATP, 0.2 mM GTP). Solutions were applied via a gravity-fed system. Separate outlets were used to apply capsaicin and AITC solutions to avoid contamination. Voltage-dependent properties were measured as described in Matt and Ahern, J. Physiol. 585:469-482 (2007). Current-voltage measurements comprised a 200-ms ramp from −150 mV to +200 mV. The baseline currents under control conditions were subtracted. For cell-attached experiments, peak amplitudes were measured from all-points histograms, and open probability was measured as NPo>750 ms. Defolliculated Xenopus laevis oocytes were injected with ≈10 ng of hTRPA1 (gift of Ardem Patapoutian, The Scripps Research Institute, La Jolla, Calif.). Oocytes were placed in a Perspex chamber and continuously superfused (5 ml min^−1) with Ca^2+-free solution containing 100 mM NaCl, 2.5 mM KCl, 5 mM Hepes, 1 mM MgC12 and titrated to pH 7.3 with ˜5 mM NaOH.

Test [3] deals with DRG neurons from TRPA1-null mice. The experiment in a line: Ca2+ imaging in DRG neurons from TRPA1-null mice. Format: cell-based, mouse. Particulars: capsaicin 100 nM. As to the method:
Ca^2+ Imaging. Neurons were loaded with 1 μM Fluo4-AM (Molecular Probes) for 20 min and washed for a further 10-20 min before recording. The dye was excited at 488±15 nm. Emitted fluorescence was filtered with a 535±25 nm bandpass filter, captured by a SPOT RT digital camera (Diagnostic Instruments) and read into a computer. Analysis was performed offline by using Simple PCI software (Compix Inc.).

The subject of test [4] is mice. The experiment in a line: Nocifensive behavior after topical application to the nasal epithelium. Format: in vivo, mouse. Particulars: capsaicin 10 mM. As to the method:
(§3) Behavioral Experiments and Neurogenic Inflammation. Animal experiments were performed according to National Institutes of Health and institutional guidelines. […] Nocifensive behavior (nose wiping in sawdust bedding) was recorded for 2 min with a video camera and the duration was subsequently measured by a blinded observer. […] Electromyographic (EMG) activity was recorded via platinum electrodes from the semitendinosus muscle in mice anesthetized with urethane (1.3 g/kg) as described in Ando and Watanabe, Br J. Anaesth. […] The EMG signal was recorded by using a low-pass cutoff frequency of 200 Hz and integrated offline by using a 100-ms time window. […] Ear thickness was recorded by using an engineer's micrometer (Mitutoyo Corp.) before mustard-oil application and thereafter every 15 min for 60 min of anesthesia and 60 min of recovery.

Test [5] deals with mice. The test can be described thus: Flexor reflex response (EMG of semitendinosus muscle) after femoral artery injection. It counts as in vivo, mouse. The following applies: propofol 500 μM, capsaicin 50 μM. As to the method:
as §3

The target of test [6] is T2, TRPV1 (Rattus norvegicus, UniProt O35433). The experiment in a line: Whole-cell patch-clamp of TRPV1-expressing HEK293 cells. Set-up: expressed in transfected cells; host or cells: HEK 293F (Invitrogen), co-transfected with GFP cDNA. Format: cell-based. Particulars: for Shifts in TRPV1 V1/2 and increases in maximal conductance by alcohols: decanol 0.6 mM, dodecanol 0.1 mM. As to the method: (§4) Electrophysiology. […] Whole-cell and single-channel patch-clamp recordings were performed by using an EPC8 amplifier (HEKA Electronics). For whole-cell and excised patch recordings the bath solution contained 140 mMNaCl, 4 mMKCl, 1 mMMgCl2, 1.2 mMCaCl2, 10 mMHepes, 10 mM glucose, pH 7.3. For cell-attached experiments, NaCl was replaced with KCl in the bath solution. […] For neuronal recording NaCl was replaced with K-gluconate (plus 1 mMATP, 0.2 mM GTP). Solutions were applied via a gravity-fed system. […] Voltage-dependent properties were measured as described in Matt and Ahern, J. Physiol. […] The baseline currents under control conditions were subtracted. For cell-attached experiments, peak amplitudes were measured from all-points histograms, and open probability was measured as NPo>750 ms. Defolliculated Xenopus laevis oocytes were injected with ≈10 ng of hTRPA1 (gift of Ardem Patapoutian, The Scripps Research Institute, La Jolla, Calif.).
as §1, with “HEK 293F cells (Invitrogen) were cultured in DMEM supplemented with 1% non-essential amino acids and 10% fetal calf serum.” left out

Test [7] concerns the target T2, TRPV1. The experiment in a line: Voltage-clamp of TRPV1-expressing Xenopus oocytes (capsaicin, protons, heat). It counts as cell-based. The following applies: VGAs 0.6 mM, pH 5.5. As to the method:
Oocyte electrophysiology. […] Oocytes were placed in a Perspex chamber and continuously superfused (5 ml min-1) with Ca2+-free solution containing (in mM): 100 NaCl, 2.5 KCl, 5 HEPES, 1 MgCl2 and titrated to pH 7.3 with ˜5 mM NaOH. For solutions <pH 6.0, HEPES was replaced with either 5 mM MES or 5 mM sodium citrate. Oocytes were routinely voltage-clamped at −60 mV at 22-23° C. For heat activation, bath temperature was raised from ˜22-50° C. over ˜100 s using an in-line solution heater (Warner Instruments). The temperature was continuously monitored with a probe placed within 2 mm of the oocyte. The temperature-activation threshold was defined as a 20% increase in current above baseline.
Volatile general anesthetics. Saturated stock solutions of volatile general anesthetics (VGAs) were prepared in gas-tight bottles by dissolving excess anesthetic agents in bath solutions and stirring vigorously overnight. From these stock solutions fresh dilutions were made up every 40-60 minutes. Concentrations of volatile anesthetics in the bath solutions were verified using a modified head-space gas chromatography method. The gas chromatograph (Carlo Erba, Milan, Italy) was equipped with a flame ionization detector (FID) and mass spectrometer. The carrier gas was hydrogen (60 kPa column head pressure) and the fused silica capillary column, coated with polysiloxane SE-30, was 25 m×0.25 mm. Injector temperature was 250° C., FID temperature was 300° C. and the oven was maintained at 90° C. Standards were prepared from a mixture of halothane, isoflurane, and sevoflurane dissolved in acetonitrile with enflurane as an internal standard.

For test [8] the following is noted: rat at 37° C.; cited from earlier work.
The target in another test is T3, TRPM8 (Rattus norvegicus, UniProt Q8R455).
T3 construct: expressed in transfected cells; host or cells: HEK 293F
The experiment in a line: Whole-cell patch-clamp of TRPM8-expressing HEK293 cells. Format: cell-based. As to the method:
as §4

In the next test the target is T4, TRPA1 (Rattus norvegicus, UniProt Q6RI86).
T4 construct: expressed in transfected cells; host or cells: HEK 293F
The test can be described thus: Whole-cell patch-clamp of TRPA1-expressing HEK293 cells. Format: cell-based. Particulars: for Activation of TRPA1 currents by VGAs: 0.9 mM, voltage-clamped HEK293 cells. As to the method: as §4
Volatile General Anesthetics and Chemicals. Saturated stock solutions of volatile GAs were prepared in gas-tight bottles by dissolving excess anesthetic agents in bath solutions overnight. From these stock solutions fresh dilutions were made up every 40-60 min. Concentrations of GAs in the bath solutions were verified by using a modified head-space gas chromatography method. […] Alcohols with <6 carbons were dissolved directly into extracellular solution, and alcohols containing 6 carbons or more were dissolved in DMSO and then diluted into extracellular solutions that were sonicated for 20 min. All other drugs were prepared as stock solutions in DMSO or ethanol and diluted into physiological solution before experiments.

The next test has as its target T5, hTRPA1 (Homo sapiens, UniProt O75762).
T5 construct: expressed in transfected cells; host or cells: Xenopus laevis oocytes (injected)
The experiment in a line: AITC-evoked currents in TRPA1-expressing Xenopus oocytes. It counts as cell-based. Particulars: VGAs 0.5-0.65 mM, AITC 10 μM. As to the method:
as §2

[9] abbreviates: isoflurane 0.9 mM, octanol 1 mM.

T2 sequence (O35433 whole entry): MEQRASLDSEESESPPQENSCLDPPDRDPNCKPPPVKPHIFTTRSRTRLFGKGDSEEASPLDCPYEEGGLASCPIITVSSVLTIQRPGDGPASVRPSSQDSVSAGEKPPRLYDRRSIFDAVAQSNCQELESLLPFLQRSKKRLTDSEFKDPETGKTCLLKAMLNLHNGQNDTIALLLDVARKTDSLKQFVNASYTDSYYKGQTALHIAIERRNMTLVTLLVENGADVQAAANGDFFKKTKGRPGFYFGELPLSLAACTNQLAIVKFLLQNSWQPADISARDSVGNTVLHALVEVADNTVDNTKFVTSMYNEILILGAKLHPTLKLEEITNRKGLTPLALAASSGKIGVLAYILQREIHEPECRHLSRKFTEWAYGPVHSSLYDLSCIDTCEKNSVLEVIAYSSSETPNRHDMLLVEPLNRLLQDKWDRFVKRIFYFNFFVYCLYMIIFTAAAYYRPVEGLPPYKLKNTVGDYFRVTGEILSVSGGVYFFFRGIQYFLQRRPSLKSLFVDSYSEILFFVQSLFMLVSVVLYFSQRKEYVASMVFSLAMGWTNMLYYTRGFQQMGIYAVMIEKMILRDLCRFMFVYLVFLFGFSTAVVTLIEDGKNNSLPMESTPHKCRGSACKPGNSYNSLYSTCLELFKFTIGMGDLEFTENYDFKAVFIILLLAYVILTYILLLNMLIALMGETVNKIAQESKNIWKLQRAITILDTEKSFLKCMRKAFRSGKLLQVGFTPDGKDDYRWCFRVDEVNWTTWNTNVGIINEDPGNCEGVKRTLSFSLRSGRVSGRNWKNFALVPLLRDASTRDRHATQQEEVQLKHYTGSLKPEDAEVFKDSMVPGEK
T4 sequence (Q6RI86 whole entry): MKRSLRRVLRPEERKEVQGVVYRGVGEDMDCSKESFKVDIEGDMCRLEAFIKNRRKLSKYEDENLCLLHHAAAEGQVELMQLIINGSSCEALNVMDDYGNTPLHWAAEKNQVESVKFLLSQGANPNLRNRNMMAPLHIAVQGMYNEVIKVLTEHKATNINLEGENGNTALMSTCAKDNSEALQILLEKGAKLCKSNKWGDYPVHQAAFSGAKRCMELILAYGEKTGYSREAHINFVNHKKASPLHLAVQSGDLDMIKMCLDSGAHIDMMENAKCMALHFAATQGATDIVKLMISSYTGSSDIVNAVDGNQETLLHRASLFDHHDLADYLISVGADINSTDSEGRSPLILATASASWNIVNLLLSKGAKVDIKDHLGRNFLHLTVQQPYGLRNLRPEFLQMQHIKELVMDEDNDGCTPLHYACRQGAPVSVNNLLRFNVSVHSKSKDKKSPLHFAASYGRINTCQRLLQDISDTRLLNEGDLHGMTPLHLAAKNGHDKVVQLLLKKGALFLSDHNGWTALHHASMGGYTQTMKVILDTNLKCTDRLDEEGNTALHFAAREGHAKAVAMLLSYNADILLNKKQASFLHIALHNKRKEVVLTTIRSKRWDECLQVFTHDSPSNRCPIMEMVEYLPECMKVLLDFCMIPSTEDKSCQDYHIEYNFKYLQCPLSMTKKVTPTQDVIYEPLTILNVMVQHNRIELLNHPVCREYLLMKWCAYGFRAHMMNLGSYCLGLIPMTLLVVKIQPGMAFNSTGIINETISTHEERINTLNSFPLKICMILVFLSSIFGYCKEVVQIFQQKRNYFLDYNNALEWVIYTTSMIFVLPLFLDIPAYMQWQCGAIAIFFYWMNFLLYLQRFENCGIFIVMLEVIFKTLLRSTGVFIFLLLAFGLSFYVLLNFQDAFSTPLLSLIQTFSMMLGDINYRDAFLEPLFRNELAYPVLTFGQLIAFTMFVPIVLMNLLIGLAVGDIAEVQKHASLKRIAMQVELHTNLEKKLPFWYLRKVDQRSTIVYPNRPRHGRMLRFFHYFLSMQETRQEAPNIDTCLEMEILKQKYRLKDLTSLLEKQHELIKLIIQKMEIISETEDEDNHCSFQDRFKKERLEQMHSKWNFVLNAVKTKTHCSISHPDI
T1 sequence (Q704Y3 whole entry): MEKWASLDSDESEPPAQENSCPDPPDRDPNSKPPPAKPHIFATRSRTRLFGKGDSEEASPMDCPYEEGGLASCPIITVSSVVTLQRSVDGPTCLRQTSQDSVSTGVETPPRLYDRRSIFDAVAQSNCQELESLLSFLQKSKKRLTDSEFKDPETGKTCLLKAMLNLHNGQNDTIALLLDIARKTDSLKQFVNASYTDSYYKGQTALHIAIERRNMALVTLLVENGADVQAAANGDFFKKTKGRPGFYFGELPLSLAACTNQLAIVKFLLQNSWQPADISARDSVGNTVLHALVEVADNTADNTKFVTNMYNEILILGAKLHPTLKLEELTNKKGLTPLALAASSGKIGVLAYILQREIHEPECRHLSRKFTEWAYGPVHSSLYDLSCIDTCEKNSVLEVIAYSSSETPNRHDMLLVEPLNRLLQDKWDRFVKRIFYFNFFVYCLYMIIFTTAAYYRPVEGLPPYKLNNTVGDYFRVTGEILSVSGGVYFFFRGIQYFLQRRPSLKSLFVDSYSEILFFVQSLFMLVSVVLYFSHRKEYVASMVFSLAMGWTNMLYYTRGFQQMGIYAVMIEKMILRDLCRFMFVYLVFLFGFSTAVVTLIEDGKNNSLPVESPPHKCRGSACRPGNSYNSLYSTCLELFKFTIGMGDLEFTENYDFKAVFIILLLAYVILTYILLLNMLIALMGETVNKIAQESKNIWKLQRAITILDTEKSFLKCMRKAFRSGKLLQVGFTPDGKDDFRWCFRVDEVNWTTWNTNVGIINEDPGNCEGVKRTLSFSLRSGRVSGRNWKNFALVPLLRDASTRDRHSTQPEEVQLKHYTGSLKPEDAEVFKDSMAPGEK
T3 sequence (Q8R455 whole entry): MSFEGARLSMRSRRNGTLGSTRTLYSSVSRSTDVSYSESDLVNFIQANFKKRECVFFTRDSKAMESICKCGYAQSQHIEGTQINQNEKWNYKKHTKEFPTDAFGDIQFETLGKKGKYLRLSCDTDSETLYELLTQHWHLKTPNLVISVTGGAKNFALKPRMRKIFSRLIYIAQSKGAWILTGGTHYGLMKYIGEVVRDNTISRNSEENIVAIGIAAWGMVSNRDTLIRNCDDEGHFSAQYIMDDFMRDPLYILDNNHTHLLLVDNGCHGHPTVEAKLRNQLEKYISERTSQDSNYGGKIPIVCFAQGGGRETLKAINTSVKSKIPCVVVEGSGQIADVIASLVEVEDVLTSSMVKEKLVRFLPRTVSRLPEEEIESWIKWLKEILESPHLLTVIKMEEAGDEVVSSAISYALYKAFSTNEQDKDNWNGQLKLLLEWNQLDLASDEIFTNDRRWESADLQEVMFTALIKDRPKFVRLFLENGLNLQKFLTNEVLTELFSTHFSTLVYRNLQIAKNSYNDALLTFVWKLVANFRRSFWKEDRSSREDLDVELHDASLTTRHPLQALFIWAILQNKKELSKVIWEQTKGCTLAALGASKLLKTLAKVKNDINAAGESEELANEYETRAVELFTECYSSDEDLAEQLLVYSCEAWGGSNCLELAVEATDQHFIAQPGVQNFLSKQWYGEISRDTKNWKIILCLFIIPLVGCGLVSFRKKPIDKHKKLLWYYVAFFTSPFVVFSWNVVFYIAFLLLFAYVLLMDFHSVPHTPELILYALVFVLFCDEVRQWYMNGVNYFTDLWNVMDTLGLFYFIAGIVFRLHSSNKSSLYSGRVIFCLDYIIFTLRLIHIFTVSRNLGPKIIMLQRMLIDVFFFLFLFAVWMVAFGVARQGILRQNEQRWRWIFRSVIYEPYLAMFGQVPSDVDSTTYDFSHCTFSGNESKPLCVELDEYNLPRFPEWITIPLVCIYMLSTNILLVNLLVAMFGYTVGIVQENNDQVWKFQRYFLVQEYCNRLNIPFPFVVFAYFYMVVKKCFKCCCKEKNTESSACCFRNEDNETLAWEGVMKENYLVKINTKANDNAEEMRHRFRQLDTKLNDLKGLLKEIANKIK
T5 sequence (O75762 whole entry): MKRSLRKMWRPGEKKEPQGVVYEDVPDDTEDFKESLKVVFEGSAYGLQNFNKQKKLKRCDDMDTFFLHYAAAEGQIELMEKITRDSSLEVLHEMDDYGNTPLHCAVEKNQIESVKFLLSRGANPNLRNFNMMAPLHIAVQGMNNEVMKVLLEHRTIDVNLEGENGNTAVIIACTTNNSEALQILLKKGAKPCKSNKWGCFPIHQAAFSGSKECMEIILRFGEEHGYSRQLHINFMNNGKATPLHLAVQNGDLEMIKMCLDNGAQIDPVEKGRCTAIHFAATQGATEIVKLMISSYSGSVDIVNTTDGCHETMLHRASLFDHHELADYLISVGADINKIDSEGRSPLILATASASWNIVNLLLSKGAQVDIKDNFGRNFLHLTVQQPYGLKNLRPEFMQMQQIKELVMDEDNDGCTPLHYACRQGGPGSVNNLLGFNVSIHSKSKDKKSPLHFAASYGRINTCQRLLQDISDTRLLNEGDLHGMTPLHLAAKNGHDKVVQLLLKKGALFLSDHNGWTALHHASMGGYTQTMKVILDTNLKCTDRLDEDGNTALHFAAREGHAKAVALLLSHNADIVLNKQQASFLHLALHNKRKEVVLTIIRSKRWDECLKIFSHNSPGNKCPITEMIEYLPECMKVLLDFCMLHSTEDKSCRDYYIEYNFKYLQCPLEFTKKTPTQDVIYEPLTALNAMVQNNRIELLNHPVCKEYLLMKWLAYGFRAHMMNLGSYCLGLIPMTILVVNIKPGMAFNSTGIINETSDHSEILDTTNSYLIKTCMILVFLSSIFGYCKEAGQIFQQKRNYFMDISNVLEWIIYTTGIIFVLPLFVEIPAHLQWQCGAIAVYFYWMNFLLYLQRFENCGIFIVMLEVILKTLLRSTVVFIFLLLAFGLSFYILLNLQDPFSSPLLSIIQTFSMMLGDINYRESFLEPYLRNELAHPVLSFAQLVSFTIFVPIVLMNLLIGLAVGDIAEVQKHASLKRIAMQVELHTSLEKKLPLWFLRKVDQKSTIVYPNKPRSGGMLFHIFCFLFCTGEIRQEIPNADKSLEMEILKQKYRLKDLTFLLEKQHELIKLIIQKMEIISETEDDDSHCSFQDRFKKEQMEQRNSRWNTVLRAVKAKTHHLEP

On to `CC(C)(C)c1ccc(/C=C/C(=O)Nc2ccc3c(c2)OCCO3)cc1` [AMG9810], for which, at TRPV1 [1], the “Inhibition of isoflurane-evoked TRPV1 responses after PDBu” value is on record as “inhibits; also recorded: completely inhibited”.
`CC12CCC(CC1=O)C2(C)C` (centres unmarked) [camphor]: the “Inhibition of propofol-evoked inward currents” value in test [2] is given as “blocked; also recorded: sensitive”.
`COc1cc(CNC(=O)CCCC/C=C/C(C)C)ccc1O` [capsaicin]: the “TRPA1-deficient cells sensitive to capsaicin” value in [3] turned out to be 43%. Further, in the test on mice [4], the “Nocifensive behavior in TRPV1-null mice” value was “but not in TRPV 1-null mice” and the “Nocifensive behavior in wild-type mice” value is “produced similar behavior”. In the test on mice [5], the “Flexor reflex muscle activity in TRPA1+/− mice” value is “robust responses” and the “Flexor reflex muscle activity in TRPA1-null mice” value is “robust responses”.
For `Oc1cc2c(cc1O)CN(C(=S)NCCc1ccc(Cl)cc1)CCC2` [capsazepine], the “Inhibition of responses to isoflurane after BK” value at TRPV1 [1] (capsazepine 1 μM, 3 of 3 cells) is “completely inhibited”.
As to `CCCCCCCCCCO` [decanol], on TRPV1 [6] (octanol 1 mM), the “Shifts in TRPV1 V1/2 and increases in maximal conductance by alcohols” value is “smaller response”.
Still for that read-out and setting: the entry for `CCCCCCCCCCCCO` [dodecanol] is “without effect”.
As for `FC(F)OC(F)(F)C(F)Cl` (centres unmarked) [enflurane], the “Enhancement of proton-evoked currents compared with isoflurane and sevoflurane” value on TRPV1 [7] was “significantly more”. Moreover, in [8], the “1 MAC equivalent aqueous concentration (published conversion factor)” value (shortened to “1 MAC equivalent aqueous concentration”) was 0.64 mM.
As for `CCOC(=O)c1cncn1[C@H](C)c1ccccc1` [etomidate], the “Change in V1/2 of TRPM8 (ΔV1/2, increase)” value on TRPM8 (100 μM, n=5-6) was determined as 25.5 mV.
`FC(F)(F)C(Cl)Br` (centres unmarked) [halothane]: the “Activation of TRPA1 currents by VGAs” value on TRPA1 is “without effect”. In [8], the “1 MAC equivalent aqueous concentration” value was 0.27 mM. Also, the “Currents evoked after PDBu treatment in TRPV1-expressing HEK293 cells” value at TRPV1 [6] (VGA 0.9 mM, PDBu 500 nM, room temperature (25° C.)) is reported as “activates currents”.
As for `COC(F)(F)C(Cl)Cl` [methoxyflurane], the “Effect on AITC-evoked currents” value on hTRPA1 is “did not”.
In the case of `CCCCCCCCO` [octanol], the “Activation of TRPA1 at holding potential −50 mV” value at TRPA1 (setting [9]) is reported as “selectively activated”. Moreover, the “Response relative to 1 mM AITC” value at TRPA1 (octanol 1.8 mM, at +200 mV) is given as under 50%. Moreover, on TRPM8 (setting [9]), the “Effects at TRPM8 at holding potential −50 mV” value is recorded as “negligible effects”. At TRPV1 [6] (setting [9]), the “Effects at TRPV1 at holding potential −50 mV” value was “negligible effects”. Also, the “Shifts in TRPV1 V1/2 and increases in maximal conductance by alcohols” value at TRPV1 [6] (octanol 1 mM) was “reached a maximum”. Also, the “Response relative to 10 μM capsaicin” value on TRPV1 [6] (octanol 1.8 mM, at 200 mV) is given as about 40%.
Turning to `FCOC(C(F)(F)F)C(F)(F)F` [sevoflurane], the “Activation of TRPA1 currents by VGAs” value on TRPA1 is on record as “without effect”. In addition, the “Effect on AITC-evoked currents” value on hTRPA1 is recorded as “did not”. In addition, the “1 MAC equivalent aqueous concentration” value in test [8] is listed as 0.35 mM.
